We go through one compound from US20080200538A1, “Inhibition of Monocyte Survival, Differentiation, or Proliferation” (The Ohio State University Research Foundation, priority 2005, published 2008).

Each structure is given as a SMILES string.

The test system of one data set is caspase-9. The experiment in a line: Caspase-9 activity, LEHD-AFC assay, THP-1 lysates. It counts as cell-based, human. Conditions: THP-1, 50 μM apigenin. The procedure: (§1) FIG. 3. Apigenin induces caspase activation in monocytic leukemia. THP-1 (top) and U937 (bottom) leukemia cells were treated for various lengths of time with 50 μM apigenin or DMSO (NT). (A and C) Caspase-9 activity was determined by the LEHDAFC assay. (B and D) Caspase-3 activity was determined by the DEVD-AFC assay. Data represents means ±SEM (N=3).
For measurements of caspase activity, cells were plated at a density of 1.5×10^6 cells/well. After treatment, cells extracts were prepared as previously described (Doseff, A. I., Baker J. H., Bourgeois T. A. and Wewers M. D. (2003) Interleukin-4-induced zpoptosis entails caspase activation and suppression of extracellular signal-regulated kinase phosphorylation. Am. J. Resp. Cell Mol. Biol., 29, 367-374). Protein extracts were incubated with 20 μM DEVD-AFC to determine caspase-3 activity or LEHD-AFC to determine caspase-9 activity (Enzyme Systems Products, Livermore, Calif.) in a cytobuffer as previously described (Doseff, A. I., Baker J. H., Bourgeois T. A. and Wewers M. D. (2003) Interleukin-4-induced zpoptosis entails caspase activation and suppression of extracellular signal-regulated kinase phosphorylation. Am. J. Resp. Cell Mol. Biol., 29, 367-374). Levels of released AFC were measured using Cytofluor 400 fluorimeter (Filters: excitation 400 nm, emission 508 nm; Perspective Co., Framingham, Mass.).

The next data set has as its system IL-1β. Briefly: IL-1β release from LPS-treated monocytes (sandwich ELISA). Format: cell-based. Conditions: LPS stimulated monocytes. How it is done: Effect of apigenin on IL-1β release. IL-1β released was determined by sandwich ELISA in supernatants of freshly isolated monocytes, or monocytes cultured for 18 h left untreated, treated with 10 ng/ml of LPS or A with different doses of apigenin. B. LPS and different doses of apigenin added at the same time. C. LPS added 1 h prior to the addition of different doses of apigenin. Values represent means ±SEM (N=5, * P<0.05, compared to LPS alone)
On the technique in general: ELISA stands for enzyme-linked immunosorbent assay.

For the next data set, the system named is THP-1 cells. Briefly: Reverse-phase HPLC of extracts of treated THP-1 cells (conversion of compound). Conditions: extracts of THP-1 cells, data not shown.
A further data set relates to TNFα. The experiment in a line: TNFα release by LPS stimulated monocytes. It counts as cell-based.
The test system of another data set is caspase-3. The experiment in a line: Caspase-3 activity, DEVD-AFC assay, THP-1 lysates. The conditions noted are these: THP-1, 50 μM apigenin. It counts as cell-based, human. How it is done:
as §1
FIG. 4. Caspase-3 activation is required for apigenin-induced apoptosis. THP-1 cells were treated for 12 h with 50 μM apigenin alone or pretreated with 20 μM DEVD-FMK for 1 h prior to the addition of apigenin. (A) Cells were then stained with calcein AM and 24 PI and the percentage of apoptotic cells was determined. (B) Lysates from cells treated as described above were used to determined caspase-3 activity by the DEVD-AFC assay. All data represents means ±SEM (N=5).
FIG. 7. Apigenin induced p38 activation is not required for apoptosis. A. Cells were pretreated for 1 h prior to addition of 50 μM apigenin or DMSO (−) with 10 or 25 μM concentrations of SB203580 or DMSO (−) for 12 h. The percentage of apoptotic cells was determined by calcein AM with PI stained cells. Data represents means ±SEM (N=5 p>0.05). B. Lysates from the same treatments were used to determined caspase-3 activity by the DEVD-AFC assay. Data represents means ±SEM (N=5 p>0.05).
For measurements of caspase activity, cells were plated at a density of 1.5×10^6 cells/well. After treatment, cells extracts were prepared as previously described (Doseff, A. I., Baker J. H., Bourgeois T. A. and Wewers M. D. (2003) Interleukin-4-induced zpoptosis entails caspase activation and suppression of extracellular signal-regulated kinase phosphorylation. Am. J. Resp. Cell Mol. Biol., 29, 367-374). […] Levels of released AFC were measured using Cytofluor 400 fluorimeter (Filters: excitation 400 nm, emission 508 nm; Perspective Co., Framingham, Mass.).

A further data set deals with Akt. Briefly: Western blot of Akt phosphorylation and total Akt in THP-1 cells. Format: cell-based, human. Conditions: THP-1, 50 μM apigenin. How it is done: FIG. 5. Apigenin affects Akt phosphorylation. THP-1 cells were treated with 50 μM apigenin for different lengths of time. Lysates were separated by SDS-PAGE, transferred and immunoblotted with anti-phospho-Akt (pSer 473), anti-phospho-Akt (pThr 308), total Akt, and â-tubulin antibodies.
FIG. 6. Apigenin induces the activation of p38 and inactivation of Akt. A. THP-1 cells were treated with 50 μM apigenin for various lengths of time. Lysates were separated by SDS-PAGE, transferred and analyzed by immunoblots with anti-phospho-p38 (pp 38) and anti-total-p38 antibodies. B. […] Lysates were analyzed by immunoblotting with anti-phospho-Akt (pSer 473), anti-phospho-p38 (p-p38), and anti-total-p38 antibodies.
Extracts from 3×10^6 cells were prepared by incubating cells for 30 min on ice in lysis buffer (50 mM Tris, 10 mM EDTA 0.5% NP-40, 10 mM Na-glycerophosphate, 5 mM Na-pyrophosphate, 50 mM NaF, 1 mM orthovanadate, 1 mM DTT, 0.1 mM PMSF, 2 μg/ml of protease inhibitors: chymostatin, pepstatin, antipain, and leupeptin). Cell lysates were centrifuged (14,000×g for 10 min at 4° C.) and the supernatants were stored for at −70° C. for future analysis. Equal amounts of protein were loaded and separated by SDS-PAGE, transferred onto nitrocellulose membranes and probed with antibodies of interest followed by horseradish peroxidase conjugated secondary antibody and visualized by enhanced chemiluminescence (Amersham, Arlington Heights, Ill.). Phospho-Ser473-Akt, phospho-Thr308-Alt, total AKT, phospho-p38 and total p38 antibodies were obtained from Cell Signaling (Boston, Mass.). â-tubulin antibody was obtained from Upstate (Charlottesville, Va.).

The subject of the next data set is LPS stimulated monocytes. The experiment in a line: Cell death of LPS-treated monocytes (calcein AM/PI). It counts as cell-based. Conditions: monocytes stimulated with LPS, increasing amount of apigenin. How it is done: To investigate apoptosis, cells were plated at a density of 1×10^6 cells/well. After treatment, cells were collected and washed in PBS. Cells were then incubated in RPMI (no phenol red) and 1 μg/ml calcein AM for 30 min and 5×10−2 ng/ml propidium iodide (PI) for 5 min. Cells were washed twice and resuspended in PBS. Cells were viewed using a fluorescent microscope (Olympus, Melville, N.Y.). At least 200 cells were counted. Cells calcein AM positive (green) in the absence of PI (red) were considered alive while cells undergoing apoptosis are green with red. Number of green cells or green with red cells was counted over total number of cells (green alone and green with red) to express cell survival or apoptotic cell percentage respectively.
Apigenin induces cell death on LPS-treated monocytes. Monocytes were stained with calcein AM and PI as described in Material and Methods to evaluate the percentage of cell death and survival. Monocytes freshly isolated (Fresh), treated for 16 h with 10 ng/ml LPS alone, left untreated (NT) or (A) treated with different doses of apigenin, (B) with LPS and apigenin, or (C) with LPS 1 h prior to the addition of apigenin. Values represent the means ±SEM (N=#, *P<0.05 compared to LPS alone).

The subject of a further data set is p38. Briefly: Western blot of p38 phosphorylation in THP-1 cells. It counts as cell-based, human. Conditions: THP-1, 50 μM apigenin, after 3 h. Background: Immunoblotting shows a protein as a band on a membrane.

Experimental for p38: A. THP-1 cells were treated with 50 μM apigenin for various lengths of time. Lysates were separated by SDS-PAGE, transferred and analyzed by immunoblots with anti-phospho-p38 (pp 38) and anti-total-p38 antibodies. B. THP-1 cells were treated for 6 hr with 50 μM apigenin alone (lane 2), treated with the apigenin diluent (lane 1), pretreatred with 10 or 25 μM SB203580 for 1 hr prior to the addition of apigenin (lanes 3 and 4) or with the SB203580 inhibitor alone (lanes 5 and 6).
Extracts from 3×10^6 cells were prepared by incubating cells for 30 min on ice in lysis buffer (50 mM Tris, 10 mM EDTA 0.5% NP-40, 10 mM Na-glycerophosphate, 5 mM Na-pyrophosphate, 50 mM NaF, 1 mM orthovanadate, 1 mM DTT, 0.1 mM PMSF, 2 μg/ml of protease inhibitors: chymostatin, pepstatin, antipain, and leupeptin). Cell lysates were centrifuged (14,000×g for 10 min at 4° C.) and the supernatants were stored for at −70° C. for future analysis. Equal amounts of protein were loaded and separated by SDS-PAGE, transferred onto nitrocellulose membranes and probed with antibodies of interest followed by horseradish peroxidase conjugated secondary antibody and visualized by enhanced chemiluminescence (Amersham, Arlington Heights, Ill.). […]

Turning to `O=c1cc(-c2ccc(O)cc2)oc2cc(O)cc(O)c12` [apigenin], the “caspase-9 activity, time course” value in the data set on caspase-9 was “observed after 6 h of treatment with apigenin and remained high after 9 h of treatment, decreasing after 12 h”. Also, in the data set with IL-1β, the “release of IL-1β” value is on record as “inhibits”. Also, the “conversion to another chemical entity in treated cells” value in the data set with THP-1 cells is reported as “neither one of these two compounds is significantly converted”. The “release of TNFα” value in the data set with TNFα is reported as “inhibits”. The “caspase-3 activity, time course” value with caspase-3 was “detected after 6 h and similarly to caspase-9, the activity was sustained at 9 h, but decreased after 12 h”. The “total Akt protein levels” value with Akt (after six hours) is “dramatically decreased”. For the same compound, the “Akt pSer473 phosphorylation” value with Akt (during the first hour) was “rapid decrease”. The “Akt pThr308 phosphorylation” value in the data set on Akt (first six hours) is “not significantly affected”. Besides, in the data set with LPS stimulated monocytes, the “death of LPS stimulated monocytes” value was “induces the death of such stimulated monocytes in an apigenin-dose dependent manner”. Moreover, the “phosphorylation of p38” value in the data set with p38 is “increase”.
